Test results taken from patent publication US20250243160A1, “INDOLE DERIVATIVES FOR TARGETING AUTOPHAGY” (Automera PTE. LTD, priority 2024, published 2025).

Test system: p62 puncta
Test: p62 puncta immunocytochemistry imaging in HeLa cells
Type: cell-based
Settings: 24 hours treatment, relative to vehicle control (DMSO)
Description: HeLa cells were seeded in coated 96-well plates (10,000 cells) and allowed to adhere overnight. After 24 hours of treatment with either vehicle (DMSO) or test compounds, the media was discarded, and cells were rinsed with ice-cold 1×PBS before fixation by 4% formaldehyde or paraformaldehyde for 20 min. Cells were then washed with 1×PBS and permeabilized with 0.1% Triton X-100 in PBS for 20 min and blocked with Blocking Buffer in PBS for 1 hour. The cells were incubated thereafter for 1 hour with anti-p62 primary antibody in Blocking Buffer, followed by incubation with secondary antibody for 1 hour. DAPI dye was used to visualize nuclei of fixed cells. The blocking buffer used were 5% Fetal Bovine Serum (FBS, ThermoFIsher Scientific, 10270106) and Li-cor Intercept (PBS) Blocking Buffer (Li-cor, 927-70001). The primary antibody used was mouse anti-p62 primary antibody (Novus Biologicals, H00008878-M01). The secondary antibodies used were goat anti-mouse Alexa Fluor Plus 488 secondary antibody (Invitrogen, GOXMS) and goat anti-mouse Alexa Fluor 488 secondary antibody (Invitrogen, A-11029). The DAPI dyes used were DAPI dye (Invitrogen, 62248) and DAPI dye (Invitrogen, D1306).
For the EVOS M7000 System, cells were imaged on the EVOS M7000 microscope using a 20× air objective (Nikon, N.A 0.45). DAPI and p62 channels were illuminated with LED light cubes using integrated hard-coated filter sets for DAPI (357/447 nm) and GFP (470/525 nm) respectively. Images were analysed for p62 puncta count on the Celeste 6.0 software.
For the Operetta CLS System, cells were imaged on the Operetta CLS using a 63× water objective on the DAPI and Alexa 488 channels. Images were analysed for p62 puncta count on the Harmony 5.1 software.
HeLa cells were treated with compounds for 24 hours to evaluate the effect of these compounds on p62 puncta activity. The resulting changes in levels of p62 puncta were assessed by imaging, either on the EVOS M7000 or Operetta CLS systems as described in experimental procedures. The fold change of p62 puncta levels induced by compound treatment relative to vehicle control (DMSO) was determined and summarized in Table 10.

SMILES	p62 puncta (fold change of p62 puncta levels)
C#CCCOCCOCCOCCNCc1ccc(Cl)c2c1ccn2Cc1ccccc1 [Compound 122]	++ (>2-fold change in p62 puncta levels relative to DMSO control)
CNCCOCCOCCOCCNCc1cc(F)cc2c1ccn2Cc1ccc(Cl)cc1 [Compound 90]	++ (>2-fold change in p62 puncta levels relative to DMSO control)
CC(C)NCC(O)COc1ccc2c(ccn2Cc2ccccc2)c1 (stereo not shown) [Compound 39]	++ (>2-fold change in p62 puncta levels relative to DMSO control)
CC(C)(C)OC(=O)N1CCC(CCOCCNCc2cc(F)cc3c2ccn3Cc2ccc(Cl)cc2)CC1 [Compound 161]	++ (>2-fold change in p62 puncta levels relative to DMSO control)
CNCCOCCOCCNCc1cc(F)cc2c1ccn2Cc1ccc(Cl)cc1 [Compound 89]	++ (>2-fold change in p62 puncta levels relative to DMSO control)
OCCNCc1cncc2c1ccn2Cc1ccc(Cl)cc1 [Compound 110, 2-(((1-(4-chlorobenzyl)-1H-pyrrolo[2,3-c]pyridin-4-yl)methyl)amino)ethan-1-ol]	++ (>2-fold change in p62 puncta levels relative to DMSO control)
C#CCCN1CCN(CCOCCNCc2cc(F)cc3c2ccn3Cc2ccc(Cl)cc2)CC1 [Compound 121]	++ (>2-fold change in p62 puncta levels relative to DMSO control)
CC(C)(C)OC(=O)NCCN1CCN(CCOCCNCc2cc(F)cc3c2ccn3Cc2ccc(Cl)cc2)CC1 [Compound 128]	++ (>2-fold change in p62 puncta levels relative to DMSO control)
C#CCCOCCNCc1cc(F)cc2c1ccn2Cc1ccc(Cl)cc1 [Compound 143]	++ (>2-fold change in p62 puncta levels relative to DMSO control)
CC(C)(C)OC(=O)CCOCCOCCNCc1cc(F)cc2c1ccn2Cc1ccc(Cl)cc1 [Compound 138]	++ (>2-fold change in p62 puncta levels relative to DMSO control)
CC(C)(C)OC(=O)N1CCC(COCCOCCNCc2cc(F)cc3c2ccn3Cc2ccc(Cl)cc2)CC1 [Compound 174]	++ (>2-fold change in p62 puncta levels relative to DMSO control)
C#CCCOCCOCCOCCNCc1cc(F)cc2c1ccn2Cc1ccc(F)cc1 [Compound 123]	++ (>2-fold change in p62 puncta levels relative to DMSO control)
Cc1cn(Cc2ccc(F)cc2)c2cc(F)cc(CNCCO)c12 [Compound 81]	++ (>2-fold change in p62 puncta levels relative to DMSO control)
CC(C)(C)OC(=O)COCCNCc1cc(F)cc2c1ccn2Cc1ccc(Cl)cc1 [Compound 141]	+ (<2-fold change in p62 puncta levels relative to DMSO control)
COC(=O)c1ccc(N2CCC(COCCNCc3cc(F)cc4c3ccn4Cc3ccc(Cl)cc3)CC2)cc1 [Compound 171]	++ (>2-fold change in p62 puncta levels relative to DMSO control)
C#CCCOCCNCc1cc(F)cc2c1ccn2Cc1ccc(F)cc1 [Compound 125]	+ (<2-fold change in p62 puncta levels relative to DMSO control)
COC(=O)CCOCCNCC(O)COc1cccc2c1ccn2Cc1ccccc1 (stereo not shown) [Compound 118]	++ (>2-fold change in p62 puncta levels relative to DMSO control)

SMILES	p62 puncta (fold change of p62 puncta levels)
CC(C)(C)OC(=O)NC[C@H]1CC[C@H](COCCNCc2cc(F)cc3c2ccn3Cc2ccc(Cl)cc2)CC1 [Compound 175]	++ (>2-fold change in p62 puncta levels relative to DMSO control)
CC(C)(C)OC(=O)NCCOCCNCc1cc(F)cc2c1ccn2Cc1ccc(Cl)cc1 [Compound 133]	++ (>2-fold change in p62 puncta levels relative to DMSO control)
CC(C)(C)OC(=O)N1CCC(OCCNCc2cc(F)cc3c2ccn3Cc2ccc(Cl)cc2)C1 (stereo not shown) [Compound 166]	++ (>2-fold change in p62 puncta levels relative to DMSO control)
Fc1cc(CNCCOCCOCCOCCCOc2ccccc2)c2ccn(Cc3ccc(Cl)cc3)c2c1 [Compound 94]	++ (>2-fold change in p62 puncta levels relative to DMSO control)
COCCN1CCC(OCCNCc2cc(F)cc3c2ccn3Cc2ccc(Cl)cc2)CC1 [Compound 130]	++ (>2-fold change in p62 puncta levels relative to DMSO control)
C#CCCCCCCOCCNCc1cc(F)cc2c1ccn2Cc1ccc(Cl)cc1 [Compound 151]	+ (<2-fold change in p62 puncta levels relative to DMSO control)
CC(C)(C)OC(=O)NCCCCCOCCNCc1cc(F)cc2c1ccn2Cc1ccc(Cl)cc1 [Compound 157]	++ (>2-fold change in p62 puncta levels relative to DMSO control)
COC(=O)C1(COCCNCc2cc(F)cc3c2ccn3Cc2ccc(Cl)cc2)COC1 [Compound 155]	+ (<2-fold change in p62 puncta levels relative to DMSO control)
C#CCCOCCOCCOCCNCc1cc(F)cc2c1ccn2Cc1ccc(Cl)cc1 [Compound 87, 2-(2-(2-(but-3-yn-1-yloxy)ethoxy)ethoxy)-N-((1-(4-chlorobenzyl)-6-fluoro-1H-indol-4-yl)methyl)ethan-1-amine]	++ (>2-fold change in p62 puncta levels relative to DMSO control)
COC(=O)c1cccc(COCCNCc2cc(F)cc3c2ccn3Cc2ccc(Cl)cc2)c1 [Compound 145]	+ (<2-fold change in p62 puncta levels relative to DMSO control)
CC(C)(C)OC(=O)NCCOCCOCCOCCNCc1cc(F)cc2c1ccn2Cc1ccc(Cl)cc1 [Compound 136]	++ (>2-fold change in p62 puncta levels relative to DMSO control)
OCCNCc1cncc2c1ccn2Cc1ccc(F)cc1 [Compound 113]	+ (<2-fold change in p62 puncta levels relative to DMSO control)
C#CCCCCCCCCOCCNCc1cc(F)cc2c1ccn2Cc1ccc(Cl)cc1 [Compound 170]	++ (>2-fold change in p62 puncta levels relative to DMSO control)
C#Cc1ccc(COCCNCc2cc(F)cc3c2ccn3Cc2ccc(Cl)cc2)cc1 [Compound 173]	++ (>2-fold change in p62 puncta levels relative to DMSO control)
C#CCCN1CCC(OCCNCc2cc(F)cc3c2ccn3Cc2ccc(Cl)cc2)CC1 [Compound 119]	++ (>2-fold change in p62 puncta levels relative to DMSO control)
CC(C)(C)OC(=O)NCCCOCCNCc1cc(F)cc2c1ccn2Cc1ccc(Cl)cc1 [Compound 163]	++ (>2-fold change in p62 puncta levels relative to DMSO control)

Target: Recombinant p62 protein (Homo sapiens, UniProt Q13501)
Sequence (Q13501 whole entry, species assumed): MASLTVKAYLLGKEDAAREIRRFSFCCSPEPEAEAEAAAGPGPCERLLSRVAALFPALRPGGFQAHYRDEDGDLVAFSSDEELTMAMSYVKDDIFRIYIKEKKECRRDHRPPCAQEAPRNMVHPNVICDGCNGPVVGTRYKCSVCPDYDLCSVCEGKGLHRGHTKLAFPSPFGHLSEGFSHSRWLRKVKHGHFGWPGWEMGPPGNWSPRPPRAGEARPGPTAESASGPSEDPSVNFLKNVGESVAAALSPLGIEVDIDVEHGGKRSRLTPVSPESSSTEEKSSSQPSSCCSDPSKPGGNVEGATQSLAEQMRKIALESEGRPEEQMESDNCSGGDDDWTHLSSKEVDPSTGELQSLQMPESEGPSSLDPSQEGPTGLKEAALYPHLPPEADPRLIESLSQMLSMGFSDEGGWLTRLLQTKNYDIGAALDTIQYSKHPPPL
Test: Surface plasmon resonance (SPR) compound binding to p62
Settings: 15° C
Description: Recombinant p62 protein was buffer exchanged into Biacore SPR running buffer (Cytiva 100671) using the Slide-A-Lyzer Mini Dialysis system 7K MWCO (Thermo Fisher Scientific, Cat no. 69560). The final protein concentration was determined using the Nanodrop One spectrophotometer (Thermo Fisher Scientific, cat no. ND-ONE-W), with calibration for the dialysis buffer.
The prepared protein was diluted in sodium acetate buffer (NaAc, pH 5.5, Cytiva) to concentrations ranging from approximately 0.25-40 μg/mL. Post-immobilization, the protein required approximately 16 hours of equilibration in running buffer supplemented with 1% DMSO at 15° C. to ensure adequate surface equilibration and protein reorganization.
All SPR experiments were conducted at a constant temperature of 15° C. The SPR chip surface was activated using EDC/NHS for a contact time of 6-10 min at a flow rate of 10 μL/min. This was followed by protein immobilization for 2100 seconds and ethanolamine capping for 420 seconds, both at the same flow rate. Immediately after immobilization, the NH2-REEE peptide was analyzed in Single Cycle Kinetics mode (SCK) to verify surface activity, ensuring it binds the sample with the published affinity (˜20 μM by SPR).
For general compound binding studies, experiments were performed at 15° C. using a running buffer composed of 10 mM HEPES, 150 mM NaCl, 1 mM DTT, 0.05% Tween 20, and 1% DMSO at pH 7.4. The test compound was initially prepared at a 20 mM concentration in DMSO and subsequently titrated in 2-fold dilutions. For each assay, 2 μL of the compound was mixed with 198 μL of the running buffer, and the mixture was thoroughly pipetted approximately 15 times for homogenization.
A series of blank injections (0 μM concentration) were included for double referencing, with at least 8 or 16 per plate depending on the format. Typical injection parameters were 120 seconds for association and 180 seconds for dissociation at a flow rate of […]. A four-point solvent correction was prepared with DMSO concentrations ranging from 2% to 0.5% in the buffer. Post each compound injection, the system's needles were washed with 50% DMSO.
Analysis of the SPR data was conducted using the Cytiva Evaluation software. The binding levels at the late time-point of each interaction were corrected for reference, then normalized to percentage bound values to account for variations in immobilization levels, protein molecular weight, and compound molecular weight.
Compound binding studies were carried out according to experimental procedures above and SPR % occupancy was determined and summarized in Table 7.

SMILES	receptor occupancy at 100 µM
CC(C)NCCN1Cc2cccc(CNCCO)c2C1 [Compound 43]	< 30%
